Assay results as given in US8658668B2, “PI3 kinase/mTOR dual inhibitor” (Eli Lilly and Company, priority 2011, dated 2014).

What was measured:
[1] = system: pS240/244 S6RP; assay: In vivo target inhibition in U87MG tumors, pS240/244 S6RP; details: Mus musculus, U-87 MG; for inhibition at 0.5 mg/kg: 0.5 mg/kg oral; for inhibition at 1.5 mg/kg: 1.5 mg/kg oral; for inhibition at 3 mg/kg: 3 mg/kg oral; for inhibition at 6 mg/kg: 6 mg/kg oral; for inhibition at 10 mg/kg: 10 mg/kg oral; for inhibition at 12 mg/kg: 12 mg/kg oral
Procedure: (§1) Implant U87MG human glioblastoma cells (5×10^6) subcutaneously into the flank of athymic nude mice in 0.2 mL of matrigel. Ten days post-implantation, dose mice orally according to a time course, single dose/single time point, or dose response protocol for the determination of TMED50 (threshold minimum effective dose). Flash freeze tumors at harvest and collect blood for the determination of parent compound plasma exposure and the calculation of TMEC50 (threshold minimum effective concentration) in the case of dose response studies. Homogenize tumors in 500 μL of XY Lysis Buffer (10 μg/mL Leupeptin, 10 μg/mL Trypsin-Chymotrypsin Inhibitor, 10 μg/mL Tosyl phenyl-alanyl chloromethyl ketone, 10 μg/mL Aprotinin, 60 mM Beta-Glycerol Phosphate, 1% Triton X100, 25 mM Tris pH 7.5, 2.5 mM Pyrophosphate, 150 mM NaCl, 2 mM p-tosyl-L-arginine methyl ester, 15 mM para-nitrophenyl phosphate, 5 mM benzamidine, 1 mM sodium vanadate, 10 mM sodium fluoride, 50 μg/mL phenyl-methane sulfonyl fluoride, 1 mM 1,4-dithiothreitol (DTT), 15 mM EDTA pH 8.0, 5 mM EGTA pH 8.0, 1 μM Microcystin, 1 μM Okadaic Acid, and 1 Roche Complete protease inhibitor mini-tablet per 10 mL) using RNase Free Pellet Pestle (Kimble-Kontes). Aliquot lysates and either assay immediately or store at −80° C. for later testing. Use the multiplex format of Meso Scale Discovery (Gaithersburg, Md.) ELISA technology and measure in vivo target inhibition of PI3K and mTOR to assess effects on phosphorylation of the threonine 308 site of AKT, a downstream effector of PI3K; phosphorylation on the threonine 389 site of p70 S6K and on the serine 240/244 site of S6RP, downstream effectors of mTORC1; phosphorylation of the serine 473 site of AKT, a downstream effector of mTORC2. Add 20 μg of lysate to carbon electrode containing 96-well plates pre-spotted with the appropriate capture antibodies. Probe the protein of interest using a ruthenium labeled detection antibody. Pass current over the electrode in the presence of read buffer containing the co-reactant TPA, and quantitate and record the light generated by electro-chemiluminescence with the MSD Sector 6000 instrument. Calculate percent inhibitions relative to the vehicle control group and perform ANOVA analysis using the JMP software package for the determination of statistical significance.

[2] = system: SXF 627 human tumor xenograft cells; assay: Oncotest tumor clonogenic assay, SXF 627; assay type: cell-based; details: colony formation, Sarcoma SXF 627, pleomorphic rhabdomyosarcoma, pd, read-out: Absolute IC50
[3] = system: LXFA 629 human tumor xenograft cells; assay: Oncotest tumor clonogenic assay, LXFA 629; assay type: cell-based; details: colony formation, NSCLC LXFA 629, adeno carcinoma, pd, read-out: Absolute IC50
[4] = system: OVXF 550 human tumor xenograft cells; assay: Oncotest tumor clonogenic assay, OVXF 550; assay type: cell-based; details: colony formation, Ovary OVXF 550, carcinoma, read-out: Absolute IC50
[5] = system: LXFA 1584 human tumor xenograft cells; assay: Oncotest tumor clonogenic assay, LXFA 1584; assay type: cell-based; details: colony formation, NSCLC LXFA 1584, adeno carcinoma, pd, read-out: Absolute IC50
[6] = system: RXF 486 human tumor xenograft cells; assay: Oncotest tumor clonogenic assay, RXF 486; assay type: cell-based; details: colony formation, Renal RXF 486, hypernephroid adeno carcinoma, clear cell, read-out: Absolute IC50
[7] = system: pT389 p70S6K; assay: In vivo target inhibition in U87MG tumors, pT389 p70S6K; details: Mus musculus, U-87 MG; for inhibition at 0.5 mg/kg: 0.5 mg/kg oral; for inhibition at 1.5 mg/kg: 1.5 mg/kg oral; for inhibition at 3 mg/kg: 3 mg/kg oral; for inhibition at 6 mg/kg: 6 mg/kg oral; for inhibition at 10 mg/kg: 10 mg/kg oral; for inhibition at 12 mg/kg: 12 mg/kg oral
Procedure: as §1

[8] = Pharmacokinetic properties in dogs; assay type: in vivo, dog; details: for AUC: both sexes, beagle, dog, plasma, oral gavage, HEC suspension
Procedure: The range of administered doses is between 1 and 12 mg/kg in an HEC suspension.
Blood samples are collected into tubes containing potassium ethylenediaminetetraacetic acid from each dog at 0 (pre-dose), 0.5, 1, 2, 4, 8, and 24 hours post dose. Some studies also include samples collected at 0.25 hr and 12 hr time points. These samples are centrifuged to obtain plasma, which is subsequently frozen prior to analysis. […] The standard curves range from 1 to 5000 ng/mL. Plasma concentrations above the upper limit of quantitation are determined by dilution.

[9] = system: OVXF 1353 human tumor xenograft cells; assay: Oncotest tumor clonogenic assay, OVXF 1353; assay type: cell-based; details: colony formation, Ovary OVXF 1353, adeno carcinoma, pd, read-out: Absolute IC50
[10] = system: CXF 1783 human tumor xenograft cells; assay: Oncotest tumor clonogenic assay, CXF 1783; assay type: cell-based; details: colony formation, Colon CXF 1783, colon carcinoma, wd, read-out: Absolute IC50
[11] = system: BXF 1218 human tumor xenograft cells; assay: Oncotest tumor clonogenic assay, BXF 1218; assay type: cell-based; details: colony formation, Bladder BXF 1218, transitional cell carcinoma, read-out: Absolute IC50
[12] = system: GXF 209 human tumor xenograft cells; assay: Oncotest tumor clonogenic assay, GXF 209; assay type: cell-based; details: colony formation, Gastric GXF 209, signet-ring cell carcinoma, ud, read-out: Absolute IC50

- IC50 [2]: 95 nM
- IC50 [3]: 26 nM
- IC50 [4]: 28 nM
- IC50 [5]: 85 nM
- IC50 [6]: 112 nM
- AUC ([8]; 1 mg/kg, 10 animals): 1160 ng·h/mL
- AUC ([8]; 3 mg/kg, 10 animals): 3780 ng·h/mL
- AUC ([8]; 4.5 mg/kg, 2 animals): 5920 ng·h/mL
- AUC ([8]; 6 mg/kg, 2 animals): 9620 ng·h/mL
- AUC ([8]; 9 mg/kg, 2 animals): 10800 ng·h/mL
- AUC ([8]; 12 mg/kg, 2 animals): 19200 ng·h/mL
- correlation of determination R^2, linear regression of the mean AUC values for each dose ([8]; oral, 1 to 12 mg/kg): 0.96
- IC50 [9]: > 200 nM
- IC50 [10]: 29 nM
- IC50 [11]: 48 nM
- IC50 [12]: 184 nM
SMILES: CO[C@@H](C)Cn1c(=O)n(C)c2cnc3ccc(-c4cncc(C(C)(C)O)c4)cc3c21 [Example 1, 8-[5-(1-Hydroxy-1-methylethyl)pyridin-3-yl]-1-[(2S)-2-methoxypropyl]-3-methyl-1,3-dihydro-2H-imidazo[4,5-c]quinolin-2-one]
- inhibition at 0.5 mg/kg ([1]; 0.5 hr post dose): 9%
- inhibition at 0.5 mg/kg ([1]; 4 hr post dose): 5%
- inhibition at 1.5 mg/kg ([1]; 0.5 hr post dose): 4%
- inhibition at 1.5 mg/kg ([1]; 4 hr post dose): 12%
- inhibition at 3 mg/kg ([1]; 0.25 hr post dose): -11%
- inhibition at 3 mg/kg ([1]; 0.5 hr post dose): 9%
- inhibition at 3 mg/kg ([1]; 1 hr post dose): 51%
- inhibition at 3 mg/kg ([1]; 3 hr post dose): 64%
- inhibition at 3 mg/kg ([1]; 4 hr post dose): 37%
- inhibition at 6 mg/kg ([1]; 0.25 hr post dose): 7%
- inhibition at 6 mg/kg ([1]; 0.5 hr post dose): 26%
- inhibition at 6 mg/kg ([1]; 1 hr post dose): 66%
- inhibition at 6 mg/kg ([1]; 2 hr post dose): 83%
- inhibition at 6 mg/kg ([1]; 4 hr post dose): 58%
- inhibition at 6 mg/kg ([1]; 6 hr post dose): 55%
- inhibition at 6 mg/kg ([1]; 12 hr post dose): -35%
- inhibition at 10 mg/kg ([1]; 0.5 hr post dose): -4%
- inhibition at 10 mg/kg ([1]; 1 hr post dose): 69%
- inhibition at 10 mg/kg ([1]; 2 hr post dose): 89%
- inhibition at 10 mg/kg ([1]; 4 hr post dose): 95%
- inhibition at 10 mg/kg ([1]; 8 hr post dose): 16%
- inhibition at 12 mg/kg ([1]; 0.5 hr post dose): 55%
- inhibition at 12 mg/kg ([1]; 4 hr post dose): 97%
- inhibition at 0.5 mg/kg ([7]; 0.5 hr post dose): 62%
- inhibition at 0.5 mg/kg ([7]; 4 hr post dose): 7%
- inhibition at 1.5 mg/kg ([7]; 0.5 hr post dose): 84%
- inhibition at 1.5 mg/kg ([7]; 4 hr post dose): 38%
- inhibition at 3 mg/kg ([7]; 0.25 hr post dose): 77%
- inhibition at 3 mg/kg ([7]; 0.5 hr post dose): 89%
- inhibition at 3 mg/kg ([7]; 1 hr post dose): 89%
- inhibition at 3 mg/kg ([7]; 3 hr post dose): 77%
- inhibition at 3 mg/kg ([7]; 4 hr post dose): 64%
- inhibition at 6 mg/kg ([7]; 0.25 hr post dose): 88%
- inhibition at 6 mg/kg ([7]; 0.5 hr post dose): 91%
- inhibition at 6 mg/kg ([7]; 1 hr post dose): 90%
- inhibition at 6 mg/kg ([7]; 2 hr post dose): 87%
- inhibition at 6 mg/kg ([7]; 4 hr post dose): 68%
- inhibition at 6 mg/kg ([7]; 6 hr post dose): 61%
- inhibition at 6 mg/kg ([7]; 12 hr post dose): 14%
- inhibition at 10 mg/kg ([7]; 0.5 hr post dose): 93%
- inhibition at 10 mg/kg ([7]; 1 hr post dose): 92%
- inhibition at 10 mg/kg ([7]; 2 hr post dose): 92%
- inhibition at 10 mg/kg ([7]; 4 hr post dose): 91%
- inhibition at 10 mg/kg ([7]; 8 hr post dose): 55%
- inhibition at 12 mg/kg ([7]; 0.5 hr post dose): 92%
- inhibition at 12 mg/kg ([7]; 4 hr post dose): 90%
